Measurements published in patent US9512075B2 (OKAYAMA UNIVERSITY, priority 2012, dated 2016).
Values after ≈ are worked out from the molar mass of the structure shown. Where two headings read alike, the source gives them in different places.

Tests used:
Type in all cases: cell-based
[1] = system: Clostridium difficile JCM1296 strain; test: microbe, parasite or virus in culture; conditions: Clostridioides difficile, JCM1296, read-out: MIC Clostridium difficile JCM1296
[2] = system: Escherichia coli BE1121 strain; test: MIC for Escherichia coli BE1121 strain; conditions: Escherichia coli, BE1121STRAIN, read-out: MIC Escherichia coli BE1121
[3] = system: Clostridium perfringens PB6K strain; test: microbe, parasite or virus in culture; conditions: Clostridium perfringens, PB6KSTRAIN, read-out: MIC Clostridium perfringens PB6K, PB6K strain; CD medium, 37° C. overnight, 10% CO2-containing anaerobic conditions
[4] = system: Enterococcus faecalis 5038 strain; test: MIC for Enterococcus faecalis 5038 strain; conditions: 5038 strain, Heart Infusion Broth medium, 37° C. overnight, turbidity, read-out: MIC Enterococcus faecalis 5038
[5] = system: Escherichia coli K-12 strain; test: MIC for Escherichia coli K-12 strain; conditions: Escherichia coli, K12STRAIN, read-out: MIC Escherichia coli K12
[6] = system: Staphylococcus aureus MRSA No. 17 (methicillin-resistant Staphylococcus aureus: MRSA); test: MIC for Staphylococcus aureus MRSA No. 17; conditions: MRSA No. 17, regular bouillon medium, 37° C. overnight, turbidity, read-out: MIC Straphyrococcus aureus MRSA No. 17 (MRSA)
[7] = system: Staphylococcus aureus Smith strain; test: MIC for Staphylococcus aureus Smith strain; conditions: Smith strain, regular bouillon medium, 37° C. overnight, turbidity, read-out: MIC Straphyrococcus aureus Smith
[8] = system: Enterococcus faecalis NCTC12201 strain (vancomycin-resistant Enterococcus: VRE); test: MIC for Enterococcus faecalis NCTC12201 strain (VRE); conditions: NCTC12201 strain (VRE), Heart Infusion Broth medium, 37° C. overnight, turbidity, read-out: MIC Enterococcus faecalis NCTC 12201 (VRE)
[9] = system: Staphylococcus aureus 209P strain; test: MIC for Staphylococcus aureus 209P strain; conditions: Staphylococcus aureus, read-out: MIC Straphyrococcus aureus 209P
[10] = BE1121 strain, regular bouillon medium, 37° C. overnight, turbidity
[11] = K-12 strain, regular bouillon medium, 37° C. overnight, turbidity
[12] = 209P strain, regular bouillon medium, 37° C. overnight, turbidity

Row | SMILES | MIC [1] [µg/mL] | MIC [2, 10] [µg/mL] | MIC [3] [µg/mL] | MIC [4] [µg/mL] | MIC [5, 11] [µg/mL] | MIC [6] [µg/mL] | MIC [7] [µg/mL] | MIC [8] [µg/mL] | MIC [9, 12] [µg/mL] | MIC [2] [µg/mL] | MIC [5] [µg/mL] | MIC ([9]; 209P) [µg/mL]
1 | CCCCC1CCC(C(O)=C2C(=O)N(C(=O)c3ccccc3)c3ccccc32)CC1 (stereo not drawn) [A014, N-benzoyl-3-(4-butylcyclohexylcarbonyl)-2-oxyindole] | 4 (≈ 9.91 µM) | 128 (≈ 317 µM) | 8 (≈ 19.8 µM) | 1 (≈ 2.48 µM) | 128 (≈ 317 µM) | 4 (≈ 9.91 µM) | 1 (≈ 2.48 µM) | 0.5 (≈ 1.24 µM) | 2 (≈ 4.96 µM) | – | – | –
2 | CCCCCCCCOCC(O)=C1C(=O)N(C(=O)Nc2ccccc2)c2ccccc21 [A058, N-(phenylaminocarbonyl)-3-octyloxyacetyl-2-oxyindole] | < 0.125 | 128 (≈ 303 µM) | < 0.125 | 0.25 (≈ 0.592 µM) | 128 (≈ 303 µM) | 128 (≈ 303 µM) | 0.5 (≈ 1.18 µM) | 0.25 (≈ 0.592 µM) | 64 (≈ 151 µM) | – | – | –
3 | CCCCCCCCCC(=O)N1C(=O)/C(=C(/C)O)c2cc(F)ccc21 [A051, N-decanoyl-3-acetyl-5-fluoro-2-oxyindole] | 1 (≈ 2.88 µM) | – | 8 (≈ 23 µM) | 0.5 (≈ 1.44 µM) | – | 4 (≈ 11.5 µM) | 0.5 (≈ 1.44 µM) | 0.25 (≈ 0.72 µM) | – | 2 (≈ 5.76 µM) | 56 (≈ 161 µM) | 4 (≈ 11.5 µM)
4 | CCCCNC(=O)N1C(=O)C(=C(O)C2CCC(CCCC)CC2)c2ccccc21 (stereo not drawn) [A015, N-(butylaminocarbonyl)-3-(4-butylcyclohexylcarbonyl)-2-oxyindole] | 4 (≈ 10 µM) | 256 (≈ 642 µM) | 8 (≈ 20.1 µM) | 8 (≈ 20.1 µM) | 256 (≈ 642 µM) | 256 (≈ 642 µM) | 256 (≈ 642 µM) | 8 (≈ 20.1 µM) | 256 (≈ 642 µM) | – | – | –
5 | CCCCCCCCCC(=O)N1C(=O)/C(=C(\O)COC)c2ccccc21 [A049, N-decanoyl-3-methoxyacetyl-2-oxyindole] | 0.5 (≈ 1.39 µM) | 128 (≈ 356 µM) | 0.5 (≈ 1.39 µM) | 0.5 (≈ 1.39 µM) | 256 (≈ 712 µM) | 256 (≈ 712 µM) | 1 (≈ 2.78 µM) | 0.5 (≈ 1.39 µM) | 256 (≈ 712 µM) | – | – | –
6 | CCCCC1CCC(C(O)=C2C(=O)N(C(=O)Nc3ccc(F)cc3)c3ccccc32)CC1 (stereo not drawn) [A043, N-(4-fluorophenylaminocarbonyl)-3-(4-butylcyclohexylcarbonyl)-2-oxyindole] | 1 (≈ 2.29 µM) | 256 (≈ 586 µM) | 4 (≈ 9.16 µM) | 1 (≈ 2.29 µM) | 256 (≈ 586 µM) | 128 (≈ 293 µM) | 1 (≈ 2.29 µM) | 1 (≈ 2.29 µM) | 256 (≈ 586 µM) | – | – | –
7 | CCCCCCCCCCOC(C)C(O)=C1C(=O)N(C(C)=O)c2ccccc21 (stereo not drawn) [A018, N-acetyl-3-(2-decyloxypropionyl)-2-oxyindole] | 256 (≈ 661 µM) | – | 256 (≈ 661 µM) | 0.5 (≈ 1.29 µM) | – | 8 (≈ 20.6 µM) | 0.5 (≈ 1.29 µM) | 0.5 (≈ 1.29 µM) | – | < 0.125 | 256 (≈ 661 µM) | 64 (≈ 165 µM)
8 | CCCCCCCCCC(O)=C1C(=O)N(C(=O)Nc2ccc(F)cc2)c2ccccc21 [A042, N-(4-fluorophenylaminocarbonyl)-3-decanoyl-2-oxyindole] | < 0.125 | 256 (≈ 603 µM) | 1 (≈ 2.36 µM) | 2 (≈ 4.71 µM) | 256 (≈ 603 µM) | 256 (≈ 603 µM) | 0.5 (≈ 1.18 µM) | 4 (≈ 9.42 µM) | 256 (≈ 603 µM) | – | – | –
9 | CCCCCCCCCCOCC(O)=C1C(=O)N(C(=O)Nc2ccccc2)c2ccc(F)cc21 [A036] | 0.25 (≈ 0.534 µM) | 128 (≈ 273 µM) | 0.25 (≈ 0.534 µM) | 0.5 (≈ 1.07 µM) | 128 (≈ 273 µM) | 128 (≈ 273 µM) | 0.25 (≈ 0.534 µM) | 0.5 (≈ 1.07 µM) | 128 (≈ 273 µM) | – | – | –
10 | CCCCCCCCCC(=O)NCC(O)=C1C(=O)N(C(=O)OC(C)(C)C)c2ccccc21 [A011, N-Boc-3-decanoylaminoacetyl-2-oxyindole] | 2 (≈ 4.5 µM) | 128 (≈ 288 µM) | 2 (≈ 4.5 µM) | 256 (≈ 576 µM) | 128 (≈ 288 µM) | 256 (≈ 576 µM) | 128 (≈ 288 µM) | 256 (≈ 576 µM) | 256 (≈ 576 µM) | – | – | –
